# Laboratory results as given in patent US6160008A, “Pharmaceutical compositions comprising S-alkylisothiouronium derivatives” (priority 1996, dated 2000).
# Entries after “also recorded” stand apart in the source; their conditions may differ.
# Legend:
# [1] = system: system hemodynamic indices; assay: System hemodynamic indices in narcotised cats (Table 2); assay type: in vivo
# Description: An experimental study of the S-ethylisothiouronium diethylphosphate effect on the indices of system hemodynamics were performed on 8 narcotised cats with a body mass of 2-4 kg. Urethane (30% solution intraperitoneally, 1-1.2 g/kg) was used for narcostisation. To determine the period of maximum efficiency and duration of the preparation effect, the major parameters of the blood circulation were determined before its introduction (initial data) and on the 2nd, 15th, 30th, and 60th minute after the introduction, at a dose of 5 mg/kg.
# The system hemodynamics was estimated on the basis of the following indices: arterial blood pressure (AP), heart rate (HR), minute volume of blood circulation (MVC), stroke volume of the heart (SV), total vascular peripheral resistance (PR), work of the left ventricle (Alv).
# The arterial pressure was measured in the left […] of cats by a mercury pressure gauge. To prevent blood clotting, 0.2-0.3 ml (1000-1500 units) of heparin was injected intravenously. Heart rate was calculated according to the R--R interval of electrocardiogram. Recording was performed through two-channel electrocardiograph. MVC was calculated according to Ramirez A. A. et al. (1956). SV, ARV, and PR were calculated from the data on MVC, AP, central blood volume, and HR using C. G Wiggers formular (1947). Quantitative material obtained in the experiments was subjected to statistical analysis by the Student t-test.
# [2] = system: acid-base balance and gas composition of mixed venous blood; assay: Acid-base balance and gas composition of mixed venous blood in hemorrhagic shock (Table 7); assay type: in vivo, cats; settings: 5 mg/kg i.v.; for Bicarbonate ion content (HCO3 a) / Buffer bases (BBa) / Buffer bases shift (BBa) / Carbonic acid gas tension (PaCO2): mixed venous blood
# Description: The influence of S-ethylisothiouronium diethylphosphate on the major indices of the blood acid-base state (AAS) and gas content in hemorrhagic shock was studied at a dose of 5 mg/kg. The cats were narcotized intraperitoneally with pentobarbital sodium (nembutal) at a dose of 40 mg/kg. The blood loss was caused by blood-letting from the common carotid artery in an amount of 3.2% of the animal body mass, which approximately corresponds to 45-47% of the blood circulation volume. The blood-letting was carried out during 3-5 minutes. Tension characteristics of oxygen and carbon dioxide in arterial (PaO2, PaCO2) and mixed venous (PvO2, PvCO2) blood, pHa and pH were studied by Astrup micromethod. The hemoglobin content (Hb) was determined by the cianohemoglobin method. Bicarbonate ion content /HCO3 was calculated with the help of the Severinghause ruler. Calculations were carried out on the CM-1403-02 computer in the Forhtran language program. Indices of the acid-base balance and blood gas content were studied in the initial state, on the 30th minute after acute bleeding as well as on 2nd, 10th, 30th, and 60th minute after the medicine injection. The substance was injected singly intravenously on the 30th minute after the blood-letting.
# In the test group (n=6), S-ethylisothiouronium diethylphosphate was injected at a dose of 5 mg/kg.
# [3] = Pathomorphological examination of internal organs; assay type: in vivo, mice, dogs; settings: mean lethal and sublethal doses
# From the text: The disturbance to blood circulation has a reversible character and as a rule, it normalized within 7-10 days after the preparation had no longer any effect.
# [4] = system: rats exposed to an oxygen pressure of 3 atm; assay: Survival under oxygen pressure of 3 atm, rats (Table 15); assay type: in vivo, Wistar rat; settings: 5 hours
# Description: Animals were exposed to oxygen under increased pressure in a hyperbaric chamber <<Mana-2≤≤ for treatment of infants above 1 year, which was adjusted for the experiments on animals. The hyperbaric chamber design permitted to create excessive pressure up to 3 atm and to observe animal behavior from outside.
# The experiments were performed on males of F1 (CBAx57B1) mice line and on males of Wistar rat line. Animals were placed in the hyperbaric chamber in plastic boxes and the atmospheric air was replaced by oxygen. The period of compression-decompression was 10 minutes. The exposure of the animals to an oxygen pressure of 3 atm during a period of 2 hours caused only some increase in their motion activity. Further staying of rats and mice in those conditions led to a decrease in the motion activity, to asphyxia with short periods of excitement and cramps. The death of some animals was registered after 2.5-3 hours, 50% after 4 hours, and 75% of mice and 100% of rats were dead after 5 hours.
# When the influence of Difetur and Etyron was studied, the animals were exposed to an oxygen pressure of 3 atm during 5 hours if not otherwise specified. Preparations were injected 5-10 minutes before the session.
# [5] = system: arterial blood pressure; assay: Clinical testing under spinal epidural anesthesia; assay type: in vivo, patients; settings: urological operations
# Description: This experiment was conducted at the General Anesthesia Department of the First Republican Hospital of Moldova. The goal of this clinical study was to estimate the ability of Difetur to act as a hypertensive drug, compared to the known adrenergic drug--ephedrine. The experiments were performed on one hundred patients, underwent urological operations under spinal epidural anesthesia, their age being between 20 and 80. The following findings are presented in view of Difetur: […]
# [6] = 5 mg/kg i.v., 2 min after injection
# [7] = 5 mg/kg i.v., 15 min after injection
# [8] = 5 mg/kg i.v., 30 min after injection
# [9] = 5 mg/kg i.v., 60 min after injection
structure (smiles),measurement,setting,value
CCSC(=N)N [S-ethylisothiouronium diethylphosphate],AP increase relative to the initial level,"[1]; 5 mg/kg i.v., 2nd minute",41%
same,Alv above the initial value,"[1]; 5 mg/kg i.v., 2nd minute",89%
same,MVC increase,"[1]; 5 mg/kg i.v., 2nd minute",7%
same,"PR, % of the initial level","[1]; 5 mg/kg i.v., 2nd minute",135%
same,Alv above the initial value,"[1]; 5 mg/kg i.v., 15th minute",22%
same,MVC decrease,"[1]; 5 mg/kg i.v., 15th minute",11%
same,MVC decrease,"[1]; 5 mg/kg i.v., 30th minute",22%
same,AP above the initial level,"[1]; 5 mg/kg i.v., 60th minute",11%
same,PR above the initial value,"[1]; 5 mg/kg i.v., 60th minute",58%
same,AP,[1]; [6],168 ± 9.9 mm Hg
same,Alv,[1]; [6],486.2 ± 136.8 g·cm
same,HF,[1]; [6],166 ± 17.9 per min.
same,MVC,[1]; [6],101.9 ± 6.8 mL/min
same,PR,[1]; [6],138.6 ± 10.5 10^3 . din . c . cm^-5 /kg
same,Stroke volume,[1]; [6],2.14 ± 0.45 mL
same,AP,[1]; [7],158 ± 8.1 mm Hg
same,Alv,[1]; [7],317.1 ± 59.4 g·cm
same,HF,[1]; [7],178 ± 15.4 per min.
same,MVC,[1]; [7],84.3 ± 5.7 mL/min
same,PR,[1]; [7],153.8 ± 7.1 10^3 . din . c . cm^-5 /kg
same,Stroke volume,[1]; [7],1.46 ± 0.25 mL
same,AP,[1]; [8],152 ± 8.4 mm Hg
same,Alv,[1]; [8],251.9 ± 50.3 g·cm
same,HF,[1]; [8],192 ± 11.9 per min.
same,MVC,[1]; [8],74.1 ± 5.2 mL/min
same,PR,[1]; [8],168.5 ± 13.0 10^3 . din . c . cm^-5 /kg
same,Stroke volume,[1]; [8],1.23 ± 0.21 mL
same,AP,[1]; [9],132 ± 9.3 mm Hg
same,Alv,[1]; [9],211.3 ± 56.1 g·cm
same,HF,[1]; [9],188 ± 10.4 per min.
same,MVC,[1]; [9],67.6 ± 8.4 mL/min
same,PR,[1]; [9],161.5 ± 14.1 10^3 . din . c . cm^-5 /kg
same,Stroke volume,[1]; [9],1.13 ± 0.26 mL
same,Duration of hypertensive effect,"[1]; 5 mg/kg i.v., single injection",up to 1 hour
same,Effect on system hemodynamics in words,[1]; cats,on the 30th minute it returned to the initial level
same,Oxygen tension (PvO2),[2]; 10 min,41.866 ± 11.242
same,pHv,[2]; 10 min after injection,7.252 ± 0.011
same,Oxygen tension (PvO2),[2]; 30 min,40.533 ± 11.332
same,pHv,[2]; 30 min after injection,7.222 ± 0.016
same,Oxygen tension (PvO2),[2]; 60 min,27.783 ± 4.824
same,pHv,[2]; 60 min after injection,7.150 ± 0.130
same,Bicarbonate ion content (HCO3 a),[2]; 10 min,17.116 ± 1.576 mmol/L
same,Buffer bases (BBa),[2]; 10 min,34.500 ± 2.342 mmol/L
same,Buffer bases shift (BBa),[2]; 10 min,-8.500 ± 1.491 mmol/L
same,Carbonic acid gas tension (PaCO2),[2]; 10 min,40.516 ± 4.340 mm Hg
same,Bicarbonate ion content (HCO3 a),[2]; 30 min,16.150 ± 1.951 mmol/L
same,Buffer bases (BBa),[2]; 30 min,32.266 ± 3.254 mmol/L
same,Buffer bases shift (BBa),[2]; 30 min,-9.966 ± 1.388 mmol/L
same,Carbonic acid gas tension (PaCO2),[2]; 30 min,40.350 ± 4.611 mm Hg
same,Bicarbonate ion content (HCO3 a),[2]; 60 min,17.800 ± 2.162 mmol/L
same,Buffer bases (BBa),[2]; 60 min,33.833 ± 3.943 mmol/L
same,Buffer bases shift (BBa),[2]; 60 min,-11.266 ± 2.569 mmol/L
same,Carbonic acid gas tension (PaCO2),[2]; 60 min,55.533 ± 5.049 mm Hg
same,Pathomorphological findings,[3],"moderately pronounced signs of hemodynamic disturbance; also recorded: No prounced inflammatory, distrophic or necrobiotic changes of internal organs were observed; also recorded: In some cases, signs of compensatory-adaptation reactions of liver"
same,Time to normalization of blood circulation disturbance,[3],7 to 10 days
same,Number of survived animals,[4]; 5 mg/kg,60%
same,Number of survived animals,[4]; 10 mg/kg,50%
same,Number of survived animals,[4]; 20 mg/kg,70%
same,Duration of hypertensive action,[5],40 to 60 min
same,Time until blood pressure attains the initial value,[5],≤ 90 min
same,Clinical safety findings,[5]; listed as Difetur,No cases of secondary hypertension were observed; also recorded: No complications of allergic type of the blood circulation or respiration were observed
same,Effect on patient's blood pressure in words,[5]; listed as Difetur,prevented the decrease in the patient's blood pressure; also recorded: blood pressure of the patients remained stable; also recorded: rapid and prolonged effect on arterial blood pressure
